# Target: human TPH1 (Homo sapiens (Human), UniProt P17752)
# Experiment: Biochemical in vitro assay using fluorescence readout (TPH1 inhibition)
# Details: human TPH1, fluorescence readout
# Sequence of human TPH1 (P17752 whole entry): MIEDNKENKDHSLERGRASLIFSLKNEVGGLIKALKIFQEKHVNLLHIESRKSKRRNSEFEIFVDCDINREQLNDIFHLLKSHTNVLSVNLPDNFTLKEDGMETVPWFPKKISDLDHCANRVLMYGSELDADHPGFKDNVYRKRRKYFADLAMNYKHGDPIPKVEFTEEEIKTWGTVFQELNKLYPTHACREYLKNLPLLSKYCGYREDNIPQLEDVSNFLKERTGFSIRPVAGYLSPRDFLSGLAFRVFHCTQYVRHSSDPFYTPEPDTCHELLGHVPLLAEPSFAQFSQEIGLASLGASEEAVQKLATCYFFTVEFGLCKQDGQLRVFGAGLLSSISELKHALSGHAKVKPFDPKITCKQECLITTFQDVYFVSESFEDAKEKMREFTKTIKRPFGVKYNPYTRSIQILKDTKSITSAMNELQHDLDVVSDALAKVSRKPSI
row,SMILES,IC50
1,"Cc1nn2c3c(nc2s1)CCN(C(=O)COc1cc(F)c(N2CCOCC2)nc1Cl)C3c1ncc(C2CC2)cc1F (stereo not shown) [Example 1.14.9, 2-((2-chloro-5-fluoro-6-morpholinopyridin-3-yl)oxy)-1-(5-(5-cyclopropyl-3-fluoropyridin-2-yl)-2-methyl-7,8-dihydro-[1,3,4]thiadiazolo[2′,3′:2,3]imidazo[4,5-c]pyridin-6(5H)-yl)ethanone]",4 nM
2,"Cc1nn2c3c(nc2s1)CCN(C(=O)COc1ccc(NS(=O)(=O)N(C)C)nc1Cl)C3c1ccc(Cl)cc1F (stereo not shown) [Example 1.4.50, N-(6-chloro-5-(2-(5-(4-chloro-2-fluorophenyl)-2-methyl-7,8-dihydro-[1,3,4]thiadiazolo[2′,3′:2,3]imidazo[4,5-c]pyridin-6(5H)-yl)-2-oxoethoxy)pyridin-2-yl)-N′,N′-dimethyl-sulfamide]",78 nM
3,"Cc1nn2c3c(nc2s1)CCN(C(=O)COc1cnc(N(C)C)nc1Cl)C3c1sccc1F (stereo not shown) [Example 1.23.11, 2-((4-chloro-2-(dimethylamino)pyrimidin-5-yl)oxy)-1-(5-(3-fluorothiophen-2-yl)-2-methyl-7,8-dihydro-[1,3,4]thiadiazolo[2′,3′:2,3]imidazo[4,5-c]pyridin-6(5H)-yl)ethanone]",6 nM
4,"Cc1nn2c3c(nc2s1)CCN(C(=O)COc1ccc(C#N)cc1Cl)C3c1sc(C(=O)N(C)C)cc1F (stereo not shown) [Example 1.24.8, 5-(6-(2-(2-chloro-4-cyanophenoxy)acetyl)-2-methyl-5,6,7,8-tetrahydro-[1,3,4]thiadiazolo[2′,3′:2,3]imidazo[4,5-c]pyridin-5-yl)-4-fluoro-N,N-dimethylthiophene-2-carboxamide]",14 nM
5,"Cc1ccc(C2c3c(nc4sc(C(F)F)nn34)CCN2C(=O)COc2ccc(NS(C)(=O)=O)nc2Cl)c(F)c1 (stereo not shown) [Example 8.2.1, N-(6-chloro-5-(2-(2-(difluoromethyl)-5-(2-fluoro-4-methylphenyl)-7,8-dihydro-[1,3,4]thiadiazolo[2′,3′:2,3]imidazo[4,5-c]pyridin-6(5H)-yl)-2-oxoethoxy)pyridin-2-yl)methanesulfonamide]",24 nM
6,"Cc1nn2c3c(nc2s1)CCN(C(=O)COc1ccc(N(C)CC(F)(F)F)nc1Cl)C3c1ncc(C2CC2)cc1F (stereo not shown) [Example 1.14.10, 2-((2-chloro-6-(methyl(2,2,2-trifluoroethyl)amino)pyridin-3-yl)oxy)-1-(5-(5-cyclopropyl-3-fluoropyridin-2-yl)-2-methyl-7,8-dihydro-[1,3,4]thiadiazolo[2′,3′:2,3]imidazo[4,5-c]pyridin-6(5H)-yl)ethanone]",4 nM
7,"O=C(COc1ccc(N2CCOCC2)nc1Cl)N1CCc2nc3sccn3c2C1c1ccc(C2CC2)cc1F (stereo not shown) [Example 6.6.1, 2-((2-chloro-6-morpholinopyridin-3-yl)oxy)-1-(5-(4-cyclopropyl-2-fluorophenyl)-7,8-dihydrothiazolo-[2′,3′:2,3]imidazo[4,5-c]pyridin-6(5H)-yl)ethanone]",4 nM
8,"Cc1nn2c3c(nc2s1)CCN(C(=O)COc1ccc(C(=O)N(C)C)nc1Cl)C3c1ccc(C2CC2)cc1F (stereo not shown) [Example 1.6.25, 6-chloro-5-(2-(5-(4-cyclopropyl-2-fluorophenyl)-2-methyl-7,8-dihydro-[1,3,4]thiadiazolo[2′,3′:2,3]imidazo[4,5-c]pyridin-6(5H)-yl)-2-oxoethoxy)-N,N-dimethylpicolinamide]",4 nM
9,"Cc1nn2c3c(nc2s1)CCN(C(=O)COc1ccc(Cl)cc1C)C3c1nc(-c2ccccc2)no1 (stereo not shown) [Example 1.11.1, 2-(4-chloro-2-methylphenoxy)-1-(2-methyl-5-(3-phenyl-1,2,4-oxadiazol-5-yl)-7,8-dihydro-[1,3,4]thiadiazolo [2′,3′:2,3]imidazo[4,5-c]pyridin-6(5H)-yl)ethanone]",35 nM
10,"Cc1nn2c3c(nc2s1)CCN(C(=O)COc1ccc(C(=O)N(C)C)nc1Cl)C3c1ncc(C2CC2)cc1F (stereo not shown) [Example 1.14.8, 6-chloro-5-(2-(5-(5-cyclopropyl-3-fluoropyridin-2-yl)-2-methyl-7,8-dihydro-[1,3,4]thiadiazolo[2′,3′:2,3]imidazo[4,5-c]pyridin-6(5H)-yl)-2-oxoethoxy)-N,N-dimethylpicolinamide]",3 nM
